In patent US12077503B2, “Substituted cyclic amides and their use as herbicides” (FMC CORPORATION, priority 2015, dated 2024):

Experiments:
Assay type in all cases: in vivo
[1] = tested on: barnyardgrass (Echinochloa crus-galli); assay: Test G Pre-Emergence Protocol; settings: Echinochloa crus-galli, pre-emergence, 312 h, evaluated after 13 days; for pest or weed control at 15.625 g/ha: 15.625 g ai/ha, read-out: Barnyard grass damage rating (100=total damage to plant; 0=no damage to plant); for pest or weed control at 62.5 g/ha: 62.5 g ai/ha, 100=total damage to plant, 0=no damage to plant, read-out: plant damage rating, Barnyardgrass; for pest or weed control at 250 g/ha: 250 g ai/ha, read-out: Barnyardgrass damage rating (100=total damage to plant; 0=no damage to plant)
Outline: (§1)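 Spraying took place one day after sowing, at 15.625, 62.5 or 250 g/ha, using an acetone/water (50:50) spray solution containing 0.5% Tween 20. Plants were kept under glasshouse conditions (24/16 °C, 14 h light, 65% humidity, watered twice daily), and injury was rated 0–100 at day 13.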

[2] = tested on: corn (Zea mays); assay: Test G Pre-Emergence Protocol; settings: Zea mays, pre-emergence, 312 h, evaluated after 13 days; for plant injury at 15.625 g/ha: 15.625 g ai/ha; for plant injury at 15.625 g/ha / plant injury at 250 g/ha: read-out: Corn damage rating (100=total damage to plant; 0=no damage to plant); for plant injury at 62.5 g/ha: 62.5 g ai/ha, 100=total damage to plant, 0=no damage to plant, read-out: plant damage rating, Corn; for plant injury at 250 g/ha: 250 g ai/ha
Outline: as §1

[3] = tested on: giant foxtail (Setaria faberi); assay: Test G Pre-Emergence Protocol; settings: Setaria faberi, pre-emergence, 312 h, evaluated after 13 days; for pest or weed control at 15.625 g/ha: 15.625 g ai/ha; for pest or weed control at 15.625 g/ha / pest or weed control at 250 g/ha: read-out: Foxtail, Giant damage rating (100=total damage to plant; 0=no damage to plant); for pest or weed control at 62.5 g/ha: 62.5 g ai/ha, 100=total damage to plant, 0=no damage to plant, read-out: plant damage rating, Foxtail, Giant; for pest or weed control at 250 g/ha: 250 g ai/ha
Outline: as §1

[4] = tested on: ivy-leaved morning glory (Ipomoea hederacea); assay: Test G Pre-Emergence Protocol; settings: Ipomoea, pre-emergence, 312 h, evaluated after 13 days; for pest or weed control at 15.625 g/ha: 15.625 g ai/ha, read-out: Morning-glory, Ivy-leaved damage rating (100=total damage to plant; 0=no damage to plant); for pest or weed control at 62.5 g/ha: 62.5 g ai/ha, 100=total damage to plant, 0=no damage to plant, read-out: plant damage rating, Morningglory, Ivy-leaved; for pest or weed control at 250 g/ha: 250 g ai/ha, read-out: Morningglory, Ivy-leaved damage rating (100=total damage to plant; 0=no damage to plant)
Outline: as §1

[5] = tested on: redroot pigweed (Amaranthus retroflexus); assay: Test G Pre-Emergence Protocol; settings: Amaranthus retroflexus, pre-emergence, 312 h, evaluated after 13 days; for pest or weed control at 15.625 g/ha: 15.625 g ai/ha; for pest or weed control at 15.625 g/ha / pest or weed control at 250 g/ha: read-out: Pigweed, Redroot damage rating (100=total damage to plant; 0=no damage to plant); for pest or weed control at 62.5 g/ha: 62.5 g ai/ha, 100=total damage to plant, 0=no damage to plant, read-out: plant damage rating, Pigweed, Redroot; for pest or weed control at 250 g/ha: 250 g ai/ha
Outline: as §1

[6] = tested on: velvetleaf (Abutilon theophrasti); assay: Test G Pre-Emergence Protocol; settings: Abutilon theophrasti, pre-emergence, 312 h, evaluated after 13 days; for pest or weed control at 15.625 g/ha: 15.625 g ai/ha; for pest or weed control at 15.625 g/ha / pest or weed control at 250 g/ha: read-out: Velvetleaf damage rating (100=total damage to plant; 0=no damage to plant); for pest or weed control at 62.5 g/ha: 62.5 g ai/ha, 100=total damage to plant, 0=no damage to plant, read-out: plant damage rating, Velvetleaf; for pest or weed control at 250 g/ha: 250 g ai/ha
Outline: as §1

[7] = tested on: barnyardgrass (Echinochloa crus-galli); assay: Test G Post-Emergence Protocol; settings: Echinochloa crus-galli, post-emergence, 312 h; for pest or weed control at 15.625 g/ha: 15.625 g ai/ha, evaluated after 13 days (100=total damage to plant; 0=no damage to plant), read-out: Barnyardgrass damage rating; for pest or weed control at 62.5 g/ha: 62.5 g ai/ha, read-out: Barnyardgrass damage rating (100=total damage to plant; 0=no damage to plant); for pest or weed control at 62.5 g/ha / pest or weed control at 250 g/ha: evaluated after 13 days; for pest or weed control at 250 g/ha: 250 g ai/ha, read-out: damage to plant, Barnyardgrass (100=total damage to plant; 0=no damage to plant)
Outline: (§2)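 Eight days post-sowing, plants received a spray of test compound (acetone/water 50:50, 0.5% Tween 20) at 15.625, 62.5 or 250 g/ha. Glasshouse regime thereafter: 24/16 °C, 14 h light, 65% humidity. Assessment after 13 days on a 0–100 damage scale.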

[8] = tested on: corn (Zea mays); assay: Test G Post-Emergence Protocol; settings: Zea mays, post-emergence, 312 h; for plant injury at 15.625 g/ha: 15.625 g ai/ha, evaluated after 13 days (100=total damage to plant; 0=no damage to plant), read-out: Corn damage rating; for plant injury at 62.5 g/ha: 62.5 g ai/ha, read-out: Corn damage rating (100=total damage to plant; 0=no damage to plant); for plant injury at 62.5 g/ha / plant injury at 250 g/ha: evaluated after 13 days; for plant injury at 250 g/ha: 250 g ai/ha, read-out: damage to plant, Corn (100=total damage to plant; 0=no damage to plant)
Outline: as §2

[9] = tested on: giant foxtail (Setaria faberi); assay: Test G Post-Emergence Protocol; settings: Setaria faberi, post-emergence, 312 h; for pest or weed control at 15.625 g/ha: 15.625 g ai/ha, evaluated after 13 days (100=total damage to plant; 0=no damage to plant), read-out: Foxtail, Giant damage rating; for pest or weed control at 62.5 g/ha: 62.5 g ai/ha, read-out: Foxtail, Giant damage rating (100=total damage to plant; 0=no damage to plant); for pest or weed control at 62.5 g/ha / pest or weed control at 250 g/ha: evaluated after 13 days; for pest or weed control at 250 g/ha: 250 g ai/ha, read-out: damage to plant, Foxtail, Giant (100=total damage to plant; 0=no damage to plant)
Outline: as §2

[10] = tested on: ivy-leaved morning glory (Ipomoea hederacea); assay: Test G Post-Emergence Protocol; settings: Ipomoea, post-emergence, 312 h; for pest or weed control at 15.625 g/ha: 15.625 g ai/ha, evaluated after 13 days (100=total damage to plant; 0=no damage to plant), read-out: Morningglory, Ivy-leaved damage rating; for pest or weed control at 62.5 g/ha: 62.5 g ai/ha, read-out: Morningglory, Ivy-leaved damage rating (100=total damage to plant; 0=no damage to plant); for pest or weed control at 62.5 g/ha / pest or weed control at 250 g/ha: evaluated after 13 days; for pest or weed control at 250 g/ha: 250 g ai/ha, read-out: damage to plant, Morningglory, Ivy-leaved (100=total damage to plant; 0=no damage to plant)
Outline: as §2

[11] = tested on: redroot pigweed (Amaranthus retroflexus); assay: Test G Post-Emergence Protocol; settings: Amaranthus retroflexus, post-emergence, 312 h; for pest or weed control at 15.625 g/ha: 15.625 g ai/ha, evaluated after 13 days (100=total damage to plant; 0=no damage to plant), read-out: Pigweed, Redroot damage rating; for pest or weed control at 62.5 g/ha: 62.5 g ai/ha, read-out: Pigweed, Redroot damage rating (100=total damage to plant; 0=no damage to plant); for pest or weed control at 62.5 g/ha / pest or weed control at 250 g/ha: evaluated after 13 days; for pest or weed control at 250 g/ha: 250 g ai/ha, read-out: damage to plant, Pigweed, Redroot (100=total damage to plant; 0=no damage to plant)
Outline: as §2

[12] = tested on: velvetleaf (Abutilon theophrasti); assay: Test G Post-Emergence Protocol; settings: Abutilon theophrasti, post-emergence, 312 h; for pest or weed control at 15.625 g/ha: 15.625 g ai/ha, evaluated after 13 days (100=total damage to plant; 0=no damage to plant), read-out: Velvetleaf damage rating; for pest or weed control at 62.5 g/ha: 62.5 g ai/ha, read-out: Velvetleaf damage rating (100=total damage to plant; 0=no damage to plant); for pest or weed control at 62.5 g/ha / pest or weed control at 250 g/ha: evaluated after 13 days; for pest or weed control at 250 g/ha: 250 g ai/ha, read-out: damage to plant, Velvetleaf (100=total damage to plant; 0=no damage to plant)
Outline: as §2

Compound | pest or weed control at 15.625 g/ha [1] | pest or weed control at 62.5 g/ha [1] | pest or weed control at 250 g/ha [1] | plant injury at 15.625 g/ha [2] | plant injury at 62.5 g/ha [2] | plant injury at 250 g/ha [2] | pest or weed control at 15.625 g/ha [3] | pest or weed control at 62.5 g/ha [3] | pest or weed control at 250 g/ha [3] | pest or weed control at 15.625 g/ha [4] | pest or weed control at 62.5 g/ha [4] | pest or weed control at 250 g/ha [4] | pest or weed control at 15.625 g/ha [5] | pest or weed control at 62.5 g/ha [5] | pest or weed control at 250 g/ha [5] | pest or weed control at 15.625 g/ha [6] | pest or weed control at 62.5 g/ha [6] | pest or weed control at 250 g/ha [6] | pest or weed control at 15.625 g/ha [7] | pest or weed control at 62.5 g/ha [7] | further results
Cc1cccc(NC(=O)[C@@H]2C(=O)N(C)C[C@H]2c2ccc(C(F)(F)F)cc2)c1[N+](=O)[O-] (racemic) [Compound 1636] | 0% | 10% | 30% | 0% | 0% | 0% | 0% | 40% | 60% | 0% | 0% | 0% | 0% | 0% | 0% | 0% | 0% | 0% | 10% | 50% | pest or weed control at 250 g/ha [7]: 50%; plant injury at 15.625 g/ha [8]: 0%; plant injury at 62.5 g/ha [8]: 0%; plant injury at 250 g/ha [8]: 0%; pest or weed control at 15.625 g/ha [9]: 50%; pest or weed control at 62.5 g/ha [9]: 70%; pest or weed control at 250 g/ha [9]: 70%; pest or weed control at 15.625 g/ha [10]: 0%; pest or weed control at 62.5 g/ha [10]: 0%; pest or weed control at 250 g/ha [10]: 0%; pest or weed control at 15.625 g/ha [11]: 0%; pest or weed control at 62.5 g/ha [11]: 0%; pest or weed control at 250 g/ha [11]: 0%; pest or weed control at 15.625 g/ha [12]: 0%; pest or weed control at 62.5 g/ha [12]: 0%; pest or weed control at 250 g/ha [12]: 0%
CN1C[C@@H](c2ccc(C(F)(F)F)cc2)[C@H](C(=O)Nc2ccnc(C(F)(F)F)c2)C1=O (racemic) [Compound 1638] | 0% | 0% | 0% | 0% | 0% | 0% | 0% | 0% | 0% | 0% | 0% | 0% | 0% | 0% | 0% | 0% | 0% | 0% | 0% | 0% | pest or weed control at 250 g/ha [7]: 0%; plant injury at 15.625 g/ha [8]: 0%; plant injury at 62.5 g/ha [8]: 0%; plant injury at 250 g/ha [8]: 0%; pest or weed control at 15.625 g/ha [9]: 0%; pest or weed control at 62.5 g/ha [9]: 0%; pest or weed control at 250 g/ha [9]: 0%; pest or weed control at 15.625 g/ha [10]: 0%; pest or weed control at 62.5 g/ha [10]: 0%; pest or weed control at 250 g/ha [10]: 0%; pest or weed control at 15.625 g/ha [11]: 0%; pest or weed control at 62.5 g/ha [11]: 0%; pest or weed control at 250 g/ha [11]: 0%; pest or weed control at 15.625 g/ha [12]: 0%; pest or weed control at 62.5 g/ha [12]: 0%; pest or weed control at 250 g/ha [12]: 0%
